Experimental data from paper PMC4439194 (Biochimica et biophysica acta, 2014).

Target: HmbR (Neisseria meningitidis, UniProt Q9JYA8)
Assay: UV-vis absorption and EPR of ferric heme-bound HmbR
Type: binding
Conditions: 500 mM imidazole, pH 7.4; sixth axial ligand of the bound ferric heme

c1c[nH]cn1 [imidazole]
UV-vis absorption and EPR of ferric heme-bound HmbR: change from pentacoordinate to hexacoordinate ligation upon addition of exogenous imidazole to ferric holoHmbR
